Bridge positions count the residues as written; N and C are the ends. Square brackets hold non-standard residues; d marks the D form. Peptide text beside a SMILES is read from it. dPhe(4-Cl) = N[C@H](Cc1ccc(Cl)cc1)C(=O)O; d2Nal = N[C@H](Cc1ccc2ccccc2c1)C(=O)O; Dap = NC[C@H](N)C(=O)O
Experiment: Biological potency in the anti-ovulatory assay in rat (dosage rats ovulating/total rats)
Assay type: functional

SMILES | Dosage [µg]
CC(=O)N1CCC[C@H]1C(=O)N[C@H](Cc1ccc(F)cc1)C(=O)N[C@H](Cc1c[nH]c2ccccc12)C(=O)N[C@H]1CC(=O)NC[C@@H](C(N)=O)NC(=O)[C@@H]2CCCN2C(=O)[C@H](CCCN=C(N)N)NC(=O)[C@H](CC(C)C)NC(=O)[C@@H](Cc2ccc3ccccc3c2)NC(=O)[C@H](Cc2ccc(O)cc2)NC1=O | 10
CC(C)C[C@@H]1C(=O)N[C@@H](CCCN=C(N)N)C(=O)N2CCC[C@@H]2C(=O)NCCC(=O)N2CCC[C@@H]2C(=O)N[C@@H](Cc2ccc(Cl)cc2)C(=O)N[C@H](Cc2c[nH]c3ccccc23)C(=O)N[C@@H](CO)C(=O)N[C@H](Cc2ccc(O)cc2)C(=O)N[C@@H](Cc2c[nH]c3ccccc23)C(=O)N1C | 1000
CC(=O)N[C@H](Cc1ccc2ccccc2c1)C(=O)N[C@H](Cc1ccc(Cl)cc1)C(=O)N[C@H](Cc1c[nH]c2ccccc12)C(=O)N[C@H]1CC(=O)NC[C@@H](C(N)=O)NC(=O)[C@@H]2CCCN2C(=O)[C@@H]2CCCCNC(=O)CC[C@H](NC1=O)C(=O)N[C@H](CCCN=C(N)N)C(=O)N[C@@H](CC(C)C)C(=O)N2 (Ac-[d2Nal][dPhe(4-Cl)][dW]DE[dR]LKP[Dap]-NH2; lactam 4-10, 5-8) | 5

Reference: ChEMBL document CHEMBL1126869, “Conformational analysis of a highly potent dicyclic gonadotropin-releasing hormone antagonist by nuclear magnetic resonance and molecular dynamics” (1993)
